Assay results published in ChEMBL document CHEMBL4219068 (Bioorg Med Chem, 2018).
Blank lines part the entries; values can stand above or below the molecule they belong to. The source made the active and inactive calls. The rule behind the calls is not given here.

Tests used:
[1] = Drug level in pH 7.4 PBS treated with apomorphine at 50 uM measured after 8 hrs by HPLC analysis; format: physicochemical; conditions: buffer, pH 7.4, 8 h
[2] = Drug level in pH 7.4 PBS treated with apomorphine at 8 uM measured immediately by HPLC analysis; format: physicochemical; conditions: buffer, pH 7.4, 8 µM
[3] = Drug level in pH 7.4 PBS treated with apomorphine at 50 uM up to 8 hrs by UV-Visible spectroscopic analysis; format: physicochemical; conditions: buffer, pH 7.4, 8 h
[4] = molecular target: Amyloid-beta precursor protein (Homo sapiens) (UniProt P05067); experiment: Inhibition of amyloid beta (1 to 42) (unknown origin) aggregation at 5 uM by Thioflavin-T fluorescence assay; conditions: TDE = time-dependent effect
Chain of Amyloid-beta precursor protein (Homo sapiens) (P05067 whole entry): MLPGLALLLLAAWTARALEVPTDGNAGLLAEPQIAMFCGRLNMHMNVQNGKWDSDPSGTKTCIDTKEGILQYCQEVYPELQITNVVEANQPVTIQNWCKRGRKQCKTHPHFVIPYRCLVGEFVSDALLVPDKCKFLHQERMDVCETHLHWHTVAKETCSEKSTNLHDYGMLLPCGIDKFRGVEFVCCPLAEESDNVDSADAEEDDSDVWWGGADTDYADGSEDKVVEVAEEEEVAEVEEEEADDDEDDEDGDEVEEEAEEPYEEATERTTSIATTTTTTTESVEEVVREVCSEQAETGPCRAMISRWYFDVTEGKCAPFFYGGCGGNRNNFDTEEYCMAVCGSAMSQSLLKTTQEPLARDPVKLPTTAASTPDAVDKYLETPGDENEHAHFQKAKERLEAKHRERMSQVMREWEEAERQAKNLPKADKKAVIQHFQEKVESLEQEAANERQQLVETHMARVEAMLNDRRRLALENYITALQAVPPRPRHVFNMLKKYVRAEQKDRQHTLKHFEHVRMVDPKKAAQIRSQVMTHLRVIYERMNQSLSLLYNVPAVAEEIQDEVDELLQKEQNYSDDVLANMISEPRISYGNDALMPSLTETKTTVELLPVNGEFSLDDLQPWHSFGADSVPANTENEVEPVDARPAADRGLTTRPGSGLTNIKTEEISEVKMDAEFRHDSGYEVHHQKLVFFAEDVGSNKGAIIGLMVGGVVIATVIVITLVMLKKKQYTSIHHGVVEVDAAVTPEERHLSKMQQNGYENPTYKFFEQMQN

[5] = molecular target: Amyloid-beta precursor protein (Homo sapiens) (UniProt P05067); experiment: Inhibition of amyloid beta (1 to 42) (unknown origin) aggregation at 5 uM after 48 hrs by Thioflavin-T fluorescence assay relative to control
[6] = molecular target: Amyloid-beta precursor protein (Homo sapiens) (UniProt P05067); experiment: Binding affinity to amyloid beta (1 to 42) (unknown origin) assessed as retention time for amyloid beta (1 to 42)-compound adduct formation at 250 uM after 1 hr by LC/Q Tof-MS analysis
[7] = molecular target: Amyloid-beta precursor protein (Homo sapiens) (UniProt P05067); experiment: Inhibition of HFIP pretreated amyloid beta (1 to 42) (unknown origin) aggregation assessed as time for nucleation phase of aggregation at 5 uM by Thioflavin-T fluorescence assay (reference value: 4 to 5 hrs)
[8] = molecular target: Amyloid-beta precursor protein (Homo sapiens) (UniProt P05067); experiment: Inhibition of amyloid beta (1 to 42) (unknown origin)-mediated toxicity in human SH-SY5Y cells at 500 uM preincubated with amyloid beta (1 to 42) for 30 mins followed by addition to cells measured after 24 hrs by MTT assay; format: cell-based
[9] = Drug level in pH 7.4 PBS at 50 uM measured after 0 hrs by HPLC analysis; format: physicochemical; conditions: buffer, pH 7.4, 0 h
[10] = Drug level in pH 7.4 PBS at 50 uM measured after 1 hr by HPLC analysis; format: physicochemical; conditions: buffer, pH 7.4, 1 h
[11] = Drug level in pH 7.4 PBS at 50 uM measured after 2 hrs by HPLC analysis; format: physicochemical; conditions: buffer, pH 7.4, 2 h
[12] = Drug level in pH 7.4 PBS at 50 uM measured after 4 hrs by HPLC analysis; format: physicochemical; conditions: buffer, pH 7.4, 4 h
[13] = Drug level in pH 7.4 PBS at 50 uM measured after 8 hrs by HPLC analysis; format: physicochemical; conditions: buffer, pH 7.4, 8 h
[14] = Drug level in pH 7.4 PBS at 50 uM measured after 24 hrs by HPLC analysis; format: physicochemical; conditions: buffer, pH 7.4, 24 h
[15] = Drug level in pH 7.4 PBS at 50 uM measured after 48 hrs by HPLC analysis; format: physicochemical; conditions: buffer, pH 7.4, 48 h
[16] = Drug level in pH 7.4 PBS treated with apomorphine at 8 to 50 uM measured up to 24 hrs by HPLC analysis; format: physicochemical; conditions: buffer, pH 7.4, 24 h
[17] = molecular target: Amyloid-beta precursor protein (Homo sapiens) (UniProt P05067); experiment: Inhibition of amyloid beta (1 to 42) (unknown origin) aggregation by Thioflavin-T fluorescence assay
[18] = molecular target: Amyloid-beta precursor protein (Homo sapiens) (UniProt P05067); experiment: Inhibition of amyloid beta (1 to 42) (unknown origin) aggregation at 0.25 to 50 uM after 48 hrs by uranyl acetate staining based transmission electron microscopic method
[19] = Drug metabolism in pH 7.4 PBS assessed as auto-oxidization by measuring 6-methyl-5,6-dihydro-4H-dibenzo[de,g]quinoline-10,11-dione level at 50 uM measured after 0 hrs by HPLC analysis; format: physicochemical; conditions: buffer, pH 7.4, 0 h
[20] = Drug metabolism in pH 7.4 PBS assessed as auto-oxidization by measuring 6-methyl-5,6-dihydro-4H-dibenzo[de,g]quinoline-10,11-dione level at 50 uM measured after 8 hrs by HPLC analysis; format: physicochemical; conditions: buffer, pH 7.4, 8 h
[21] = molecular target: Amyloid-beta precursor protein (Homo sapiens) (UniProt P05067); experiment: Inhibition of amyloid beta (1 to 42) (unknown origin) aggregation at 5 uM in presence of reductant TCEP by Thioflavin-T fluorescence assay
[22] = molecular target: Amyloid-beta precursor protein (Homo sapiens) (UniProt P05067); experiment: Binding affinity to amyloid beta (1 to 42) (unknown origin) assessed as retention time for amyloid beta (1 to 42) (Lys28)-compound adduct at 250 uM after 1 hr by LC/Q Tof-MS analysis
[23] = molecular target: Amyloid-beta precursor protein (Homo sapiens) (UniProt P05067); experiment: Binding affinity to amyloid beta (1 to 42) (unknown origin) assessed as retention time for amyloid beta (1 to 42) (Lys16)-compound adduct at 250 uM after 1 hr by LC/Q Tof-MS analysis
[24] = molecular target: Amyloid-beta precursor protein (Homo sapiens) (UniProt P05067); experiment: Binding affinity to amyloid beta (1 to 42) (unknown origin) assessed as retention time for amyloid beta (1 to 42) - 6-methyl-5,6-dihydro-4H-dibenzo[de,g]quinoline-10,11-dione adduct at 250 uM after 1 hr by LC/Q Tof-MS analysis
[25] = molecular target: Amyloid-beta precursor protein (Homo sapiens) (UniProt P05067); experiment: Binding affinity to amyloid beta (9 to 35) E22P M35ox mutant (unknown origin) oxidized at M35 residue assessed as E22P M35ox(Lys16/Lys28)-compound adduct formation at 250 uM after 1 hr by LC/Q Tof-MS analysis
[26] = Drug metabolism in pH 7.4 PBS assessed as auto-oxidization by measuring 6-methyl-5,6-dihydro-4H-dibenzo[de,g]quinoline-10,11-dione level at 50 uM measured after 1 hr by HPLC analysis; format: physicochemical; conditions: buffer, pH 7.4, 1 h
[27] = Drug metabolism in pH 7.4 PBS assessed as auto-oxidization by measuring 6-methyl-5,6-dihydro-4H-dibenzo[de,g]quinoline-10,11-dione level at 50 uM measured after 2 hrs by HPLC analysis; format: physicochemical; conditions: buffer, pH 7.4, 2 h
[28] = Drug metabolism in pH 7.4 PBS assessed as auto-oxidization by measuring 6-methyl-5,6-dihydro-4H-dibenzo[de,g]quinoline-10,11-dione level at 50 uM measured after 4 hrs by HPLC analysis; format: physicochemical; conditions: buffer, pH 7.4, 4 h
[29] = Drug metabolism in pH 7.4 PBS assessed as auto-oxidization by measuring 6-methyl-5,6-dihydro-4H-dibenzo[de,g]quinoline-10,11-dione level at 50 uM measured after 24 hrs by HPLC analysis; format: physicochemical; conditions: buffer, pH 7.4, 24 h

Drug metabolism [1]: Metabolite_Detected
Drug metabolism [2]: Metabolite_Detected
Drug metabolism [3]: Metabolite_Detected
inhibition [4]: Tde
inhibition [5]: > 50%
Activity [6]: inactive
TIME [7]: 6 to 7 h
Drug uptake [9]: 31 µM
Drug uptake [10]: 24 µM
Drug uptake [11]: 22 µM
Drug uptake [12]: 24 µM
Drug uptake [13]: 24 µM
Drug uptake [14]: 19 µM
Drug uptake [15]: 15 µM
Compound: CN1CCc2cccc3c4c(cc1c23)C=CC(=O)C4=O
inhibition [8]: inactive

Drug metabolism [16]: Metabolite_Detected
Compound: CNCCc1cccc2c3c(ccc12)C=CC(=O)C3=O

Drug metabolism [16]: Metabolite_Detected
Compound: CN1CCc2cccc3c2C1=CC(=O)C3=O

inhibition [17]: Dose-dependent effect
inhibition [18]: Active
Drug metabolism [19]: 8 µM
Drug metabolism [20]: 50 µM
inhibition [4]: Tde
inhibition [21]: inactive
inhibition [5]: > 50%
Retention time [22]: 6.9 min
Retention time [23]: 6.4 min
Activity [24]: Active
Activity [25]: Active
TIME [7]: 6 to 7 h
Drug metabolism [26]: 23 µM
Drug metabolism [27]: 32 µM
Drug metabolism [28]: 47 µM
Drug metabolism [29]: 25 µM
Compound: CN1CCc2cccc3c2[C@H]1Cc1ccc(O)c(O)c1-3 [APOMORPHINE]
inhibition [8]: inactive
